Reference: PMC3237054 (2011)

Legend:
[1] = molecular target: LPA1 (hLPA1) (Homo sapiens, UniProt Q92633); assay type: biochemical; settings: read-out: Ki; cell membranes
[2] = molecular target: T1, LPA3 (hLPA3) (Homo sapiens, UniProt Q9UBY5); assay type: biochemical; settings: read-out: Ki; cho cell membranes
T1 sequence (Q9UBY5 1-353): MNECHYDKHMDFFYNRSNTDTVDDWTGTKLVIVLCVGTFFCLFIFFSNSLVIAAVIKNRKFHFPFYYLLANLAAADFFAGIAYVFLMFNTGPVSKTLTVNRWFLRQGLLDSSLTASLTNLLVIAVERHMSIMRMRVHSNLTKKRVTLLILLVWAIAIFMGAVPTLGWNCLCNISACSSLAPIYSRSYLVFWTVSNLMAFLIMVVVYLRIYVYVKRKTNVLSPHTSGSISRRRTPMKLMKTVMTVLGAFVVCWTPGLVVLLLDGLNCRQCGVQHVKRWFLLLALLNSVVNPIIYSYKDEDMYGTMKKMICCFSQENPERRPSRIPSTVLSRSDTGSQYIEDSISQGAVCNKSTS

LPA1 (hLPA1), sequence (Q92633 whole entry): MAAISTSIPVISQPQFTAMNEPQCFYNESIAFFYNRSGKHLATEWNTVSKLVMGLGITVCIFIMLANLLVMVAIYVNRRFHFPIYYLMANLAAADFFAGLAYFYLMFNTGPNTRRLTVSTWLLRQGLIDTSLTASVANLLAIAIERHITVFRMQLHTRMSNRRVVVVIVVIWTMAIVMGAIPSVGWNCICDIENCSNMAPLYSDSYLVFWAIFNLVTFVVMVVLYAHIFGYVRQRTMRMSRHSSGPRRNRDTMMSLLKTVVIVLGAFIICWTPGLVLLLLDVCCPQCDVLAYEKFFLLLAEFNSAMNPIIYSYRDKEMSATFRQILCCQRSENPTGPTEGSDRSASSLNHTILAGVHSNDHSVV

## VPC51299 [6.1]
[1]
  Kb: 143 nM
[2]
  Kb: 512 nM
